According to patent US20080311099A1, “Pyridoxal-5-Phosphate and Related Compounds in Combination With Therapeutic Cardiovascular Compounds for Treating Angina” (MEDICURE INTERNATIONAL INC., priority 2004, published 2008):

Tests used:
[1] = test system: isolated non-ischemic working rat heart; experiment: Glucose oxidation rates in isolated non-ischemic working rat heart ([14C] glucose, 14CO2 production); settings: 60 minutes aerobic perfusion, compound added about 5 minutes into the aerobic period; saline control 1580±183
Procedure: The goal was to determine if […] altered glucose oxidation rates or cardiac function in the isolated non-ischemic working rat heart model. This was achieved by subjecting rat hearts to 60 minutes of aerobic perfusion. […] was added about 5 minutes into the aerobic period and the effects of […] on glucose metabolism was determined during the aerobic period. […] Rat hearts were cannulated for isolated working heart perfusions as described previously (Lopaschuk et al., J Pharmacol Exp Ther. 1993 January;264(1):135-44). In brief, male Sprague-Dawley rats (0.3-0.35 kg) were anesthetized with pentobarbital sodium (60 mg/kg i. p.). The hearts were quickly excised, the aorta was cannulated, and a retrograde perfusion at 37° C. was initiated at a hydrostatic pressure of 60 mm Hg. Hearts were trimmed of excess tissue, and the pulmonary artery and the opening to the left atrium were then cannulated. […] Spontaneously beating hearts were used in all perfusions, heart rate and aortic pressure were measured with a Biopac Systems Inc. blood pressure transducer connected to the aortic outflow line. Cardiac output and aortic flow were measured with Transonic […] ultrasonic flow probes in the preload and afterload lines, respectively. Coronary flow was calculated as the difference between cardiac output and aortic flow. […]

[2] = water, alcohol, and ether; cited from earlier work
[3] = Treatment of stress-induced angina in patients (P5P, pyridoxine, derivatives; alone and in combination therapies); format: in vivo, human
Procedure: Patients with a history of exercise induced angina are treated with P5P either before or after the onset of angina. Several measures are used to test the effectiveness of P5P for the treatment of angina including the time to onset of angina, exercise duration, time to 1 mm ST depression, and patient pain evaluation.
The experiment of Example 25 is repeated, this time testing combination therapies.
The Experiments of Example 28 are repeated, this time using pyridoxine instead of P5P.

[4] = Animal models for treatment of stress-induced angina (canine model of myocardial ischemia, canine model of exertional dysfunction, isolated perfused rat heart model of low flow ischemia); format: in vivo; settings: compared with untreated or sham treated control animals
Description: The canine model of myocardial ischemia, the canine model of exertional dysfunction, and the isolated perfused rate heart model of low flow ischemia, as previously and elsewhere described, is used to determine the effectiveness of P5P, pyridoxal, pyridoxine, and the compounds synthesized in Examples 1-24, to determine effectiveness of these compounds in treatment of angina.
The animal model experiments of Example 26 are repeated, this time with the combination treatment groups as elucidated in Examples 28, 29 and 30.

[5] = patients with a history of exercise induced angina, treated before or after the onset of angina

With `O=C(O)C(Cl)Cl` [DCA, dichloroacetic acid, reference compound] the glucose oxidation rates [1] was 2422±140.

In the case of `Cc1ncc(COP(=O)(O)O)c(C=O)c1O` [Example P5P, 3-hydroxy-2-methyl-5-[(phosphonooxy)methyl]-4-pyridine-carboxaldehyde], the solubility [2] is given as “essentially insoluble in water, alcohol, and ether”, the exercise duration [3, 5] is given as “increased” and the “onset to angina (time to onset of angina)” value [3, 5] is given as “diminished”. The “patient pain (patient pain evaluation)” value [3, 5] was “diminished”, the “time to 1 mm ST depression” value [3, 5] was “diminished” and the “angina outcomes, treatment alone” value ([3]; patients, P5P treatment alone (Example 28)) was “improves angina outcomes”. The glucose oxidation rates [1] was 2253±230 and the “symptoms and levels of angina” value [4] was “significantly lower symptoms and levels of angina”.

For `Cc1ncc(CO)c(C=O)c1O` [pyridoxal], the “symptoms and levels of angina” value [4] was “significantly lower symptoms and levels of angina”.

For `Cc1ncc(CO)c(CO)c1O` [pyridoxine, 2-methyl-3-hydroxy-4,5-di(hydroxymethyl)pyridine], the “symptoms and levels of angina” value [4] was “significantly lower symptoms and levels of angina”.
